PMC4976367, “Dimethyl fumarate blocks pro-inflammatory cytokine production via inhibition of TLR induced M1 and K63 ubiquitin chain formation” (Scientific Reports, 2016)
Counter-ions that a name gives are not always drawn.

Assays:
Assay type in all cases: biochemical
[1] = target: Ube2W (Homo sapiens, UniProt Q96B02); experiment: E2 ubiquitin loading assay, panel of […] E2s at two fixed DMF concentrations
[2] = target: T1, Ube2S (Homo sapiens, UniProt Q16763); experiment: as above
T1 sequence (Q16763 1-222): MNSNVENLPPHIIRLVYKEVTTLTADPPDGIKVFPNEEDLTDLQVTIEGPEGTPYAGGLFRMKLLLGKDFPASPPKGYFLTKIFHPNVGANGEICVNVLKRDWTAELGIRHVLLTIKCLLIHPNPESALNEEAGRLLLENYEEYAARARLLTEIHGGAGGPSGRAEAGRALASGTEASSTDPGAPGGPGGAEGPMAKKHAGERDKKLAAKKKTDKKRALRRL
T1 sequence (P22314 2-1058 partner): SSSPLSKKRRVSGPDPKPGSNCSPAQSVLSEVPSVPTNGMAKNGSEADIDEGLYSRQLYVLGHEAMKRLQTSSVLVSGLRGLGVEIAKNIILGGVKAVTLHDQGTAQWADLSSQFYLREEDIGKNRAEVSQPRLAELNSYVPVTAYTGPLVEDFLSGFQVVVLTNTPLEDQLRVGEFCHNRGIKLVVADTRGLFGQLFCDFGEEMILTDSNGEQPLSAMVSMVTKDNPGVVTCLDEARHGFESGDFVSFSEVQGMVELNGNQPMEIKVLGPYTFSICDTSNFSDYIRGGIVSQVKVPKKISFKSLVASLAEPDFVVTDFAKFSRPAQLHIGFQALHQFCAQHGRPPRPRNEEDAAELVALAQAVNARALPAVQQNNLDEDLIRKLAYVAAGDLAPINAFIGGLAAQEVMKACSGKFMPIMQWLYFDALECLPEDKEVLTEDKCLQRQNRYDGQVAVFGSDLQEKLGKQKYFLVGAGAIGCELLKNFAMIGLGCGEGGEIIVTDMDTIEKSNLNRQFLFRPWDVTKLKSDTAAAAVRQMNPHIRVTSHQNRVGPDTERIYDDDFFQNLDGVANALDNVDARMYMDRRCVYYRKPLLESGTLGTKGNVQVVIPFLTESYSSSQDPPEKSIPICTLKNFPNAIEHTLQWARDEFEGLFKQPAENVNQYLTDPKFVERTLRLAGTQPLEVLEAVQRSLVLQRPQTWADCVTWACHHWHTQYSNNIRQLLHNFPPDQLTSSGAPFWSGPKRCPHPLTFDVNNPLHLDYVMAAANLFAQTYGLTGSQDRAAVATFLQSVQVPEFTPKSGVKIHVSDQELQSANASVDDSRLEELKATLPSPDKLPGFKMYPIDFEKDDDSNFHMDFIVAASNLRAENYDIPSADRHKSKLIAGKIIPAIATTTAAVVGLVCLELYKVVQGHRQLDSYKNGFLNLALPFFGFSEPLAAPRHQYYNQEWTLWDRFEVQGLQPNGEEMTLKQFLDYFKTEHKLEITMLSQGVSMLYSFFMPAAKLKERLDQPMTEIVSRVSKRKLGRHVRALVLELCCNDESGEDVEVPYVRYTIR

[3] = target: T2, Ubc13 (Homo sapiens, UniProt P61088); experiment: MALDI-TOF intact mass shift (covalent adduct, +[…] Da); IC50 from E2 ubiquitin loading assay with purified UBE1 and E2
T2 construct: gene UBE2N; recombinant Ubc13
T2 sequence (P61088 1-152): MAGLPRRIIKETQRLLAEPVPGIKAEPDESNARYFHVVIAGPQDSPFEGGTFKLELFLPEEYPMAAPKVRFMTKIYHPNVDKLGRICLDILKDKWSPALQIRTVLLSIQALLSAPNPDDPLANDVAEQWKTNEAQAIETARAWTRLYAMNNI

[4] = target: T3, UbcH7 (Homo sapiens, UniProt P68036); experiment: MALDI-TOF intact mass shift (covalent adducts, +[…] and +[…] Da); IC50 from E2 ubiquitin loading assay with purified UBE1 and E2
T3 construct: gene UBE2L3; recombinant UbcH7
T3 sequence (P68036 whole entry, one chain of several): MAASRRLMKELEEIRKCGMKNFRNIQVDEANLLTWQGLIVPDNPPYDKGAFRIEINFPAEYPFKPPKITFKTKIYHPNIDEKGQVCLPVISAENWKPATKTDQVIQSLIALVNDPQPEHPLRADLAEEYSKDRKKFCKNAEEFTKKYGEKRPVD

[5] = target: T4, Ube2R1 (Homo sapiens, UniProt P49427); experiment: E2 ubiquitin loading assay, panel of […] E2s at two fixed DMF concentrations
T4 construct: gene CDC34
T4 sequence (P49427 1-236): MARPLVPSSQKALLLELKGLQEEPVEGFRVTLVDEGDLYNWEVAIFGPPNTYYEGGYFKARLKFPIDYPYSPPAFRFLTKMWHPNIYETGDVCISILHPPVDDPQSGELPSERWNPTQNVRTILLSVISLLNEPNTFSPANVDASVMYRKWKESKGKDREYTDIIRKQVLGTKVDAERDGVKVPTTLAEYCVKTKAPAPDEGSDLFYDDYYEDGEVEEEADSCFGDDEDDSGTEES

[6] = target: T5, Ube2T (Homo sapiens, UniProt Q9NPD8); experiment: as above
T5 sequence (Q9NPD8 1-197): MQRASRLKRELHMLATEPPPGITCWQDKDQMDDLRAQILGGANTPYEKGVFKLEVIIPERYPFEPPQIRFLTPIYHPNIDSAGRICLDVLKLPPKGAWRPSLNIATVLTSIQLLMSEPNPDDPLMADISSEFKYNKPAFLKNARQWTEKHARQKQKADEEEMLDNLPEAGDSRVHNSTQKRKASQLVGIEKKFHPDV

Chain of Ube2W (Q96B02 whole entry, one chain of several): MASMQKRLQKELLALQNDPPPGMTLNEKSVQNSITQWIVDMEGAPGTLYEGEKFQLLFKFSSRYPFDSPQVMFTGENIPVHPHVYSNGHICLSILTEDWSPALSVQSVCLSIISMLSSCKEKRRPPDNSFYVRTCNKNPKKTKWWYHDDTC

SMILES: COC(=O)/C=C/C(=O)OC [Dimethyl fumarate]
- E2 ubiquitin loading assay, panel of 24 E2s at two fixed DMF concentrations [1]: UbcH7, Ube2W, Ube2T, Ube2S and Ube2R1 being most strongly inhibited
- E2 ubiquitin loading assay, panel of 24 E2s at two fixed DMF concentrations [2]: UbcH7, Ube2W, Ube2T, Ube2S and Ube2R1 being most strongly inhibited
- IC50 [3]: 10 to 20 µM
- IC50 [4]: < 10 µM
- E2 ubiquitin loading assay, panel of 24 E2s at two fixed DMF concentrations [5]: UbcH7, Ube2W, Ube2T, Ube2S and Ube2R1 being most strongly inhibited
- E2 ubiquitin loading assay, panel of 24 E2s at two fixed DMF concentrations [6]: UbcH7, Ube2W, Ube2T, Ube2S and Ube2R1 being most strongly inhibited
